The values below come from US9572828B2, “Treatment for melanoma” (The Board of Regents of the University of Texas System, priority 2013, dated 2017).

For data set [1] the following is noted: human, in vivo; cited from earlier work.
For data set [2] the following is noted: human, in vivo; cited from earlier work. This is another data set of the same source.
Data set [3] has as its system primary melanomas from patients. As to the kind of experiment: xenograft assay, digitoxin and/or GSK1120212. In kind it is in vivo, NSG mice. The settings on record: 0.5 mg/kg/day each agent by oral gavage; melanomas from multiple patients, with and without BRAF mutations.
Method: Melanoma cells were injected subcutaneously in the right flanks of immunocompromised NSG mice. When tumors became palpable, mice were randomized to four different treatments. […] Control mice received vehicle only (200 μl 0.5% promethylcellulose, 0.2% Tween80 and 5% DMSO per day). Tumors were measured every 2-3 days with calipers.
In these experiments, metastatic melanoma cells were injected subcutaneously in the right flanks of immunocompromised NSG mice. When tumors became palpable, mice were randomized to four different treatments. […] Control mice received vehicle only (200 μl 0.5% promethylcellulose, 0.2% Tween80 and 5% DMSO per day). Tumors were measured every 2-3 days with calipers and bioluminescence imaging was performed when the diameter of the tumors in vehicle treated mice reached 2 cm.
The conditions of data set [4]: 4 hours after 0.5 mg/kg injection (FIG. 1C).
For data set [5], the system named is BRAFV600E/K mutant advanced or malignant melanoma. The settings on record: cited from earlier work.

Consider `C[C@H]1O[C@@H](O[C@H]2[C@@H](O)C[C@H](O[C@H]3[C@@H](O)C[C@H](O[C@H]4CC[C@@]5(C)[C@H](CC[C@@H]6[C@@H]5C[C@@H](O)[C@]5(C)[C@@H](C7=CC(=O)OC7)CC[C@]65O)C4)O[C@@H]3C)O[C@@H]2C)C[C@H](O)[C@@H]1O` [digoxin], for which, in data set [1], the “frequency of common adverse effects (loss of appetite, nausea, vomiting, diarrhea etc.)” value is reported as ≥ 1 % of patients and the “plasma concentration at which adverse effects are rare” value was less than 0.8 ng/mL. Also, in data set [2], the half-life result is “about 36 hours”.
Turning to `C[C@H]1O[C@@H](O[C@H]2[C@@H](O)C[C@H](O[C@H]3[C@@H](O)C[C@H](O[C@H]4CC[C@@]5(C)[C@H](CC[C@@H]6[C@@H]5CC[C@]5(C)[C@@H](C7=CC(=O)OC7)CC[C@]65O)C4)O[C@@H]3C)O[C@@H]2C)C[C@H](O)[C@@H]1O` [digitoxin], in data set [3], the “growth of human melanoma xenografts” value is “slowed the growth”. The “doses in the plasma of mice” value in data set [4] is on record as “fell within the therapeutic range in humans”.
For the compound `CC(=O)Nc1cccc(-n2c(=O)n(C3CC3)c(=O)c3c(Nc4ccc(I)cc4F)n(C)c(=O)c(C)c32)c1` [Trametinib], in data set [5] (MEKi class effect), the chorioretinopathy is on record as less than 1% and the decreased ejection fraction is listed as 7%. For the same compound, in data set [5] (Trametinib arm), the “Grade 3 hypertension” value is 12% and the “Grade 3 rash” value was 7%.
